The subject of series [1] is A549. Nature of the series: Induction of apoptosis in human A549 cells assessed as late apoptotic cells at 200 uM after 2 hrs by Annexin-V/propidium iodide staining based FACS analysis (reference value: 5%). It is filed as functional.
Series [2] is described as follows: Induction of programmed cell death in human MEC1 cells at 200 uM after 2 hrs by Annexin-V/propidium iodide staining based FACS analysis. The class given is functional.
The test system of series [3] is MCF7. Nature of the series: Induction of programmed cell death in human MCF7 cells after 2 hrs by Annexin-V/propidium iodide staining based FACS analysis. The class given is functional.
Series [4] in a line: Induction of programmed cell death in human A549 cells at 50 uM after 2 hrs by Annexin-V/propidium iodide staining based FACS analysis. It is filed as functional.
The subject of series [5] is A549. Nature of the series: Induction of programmed cell death in human A549 cells after 2 hrs by Annexin-V/propidium iodide staining based FACS analysis. It is filed as functional.
Series [6] can be described thus: Induction of programmed cell death in human HCT116 cells at 200 uM after 2 hrs by Annexin-V/propidium iodide staining based FACS analysis. It is filed as functional, HCT-116.
Series [7] relates to MCF7. Nature of the series: Induction of apoptosis in human MCF7 cells assessed as late apoptotic cells at 200 uM after 2 hrs by Annexin-V/propidium iodide staining based FACS analysis (reference value: 22%). The class given is functional.
Series [8] has as its system A549. Nature of the series: Induction of apoptosis in human A549 cells assessed as early apoptotic cells at 200 uM after 2 hrs by Annexin-V/propidium iodide staining based FACS analysis (reference value: 2%). It is filed as functional.
The nature of series [9]: Metabolic stability in human serum at 10 mg/ml at 37 degC after 2 hrs by HPLC analysis. The class given is ADME.
In series [10] the test system is HCT-116. Nature of the series: Induction of apoptosis in human HCT116 cells assessed as late apoptotic cells at 200 uM after 2 hrs by Annexin-V/propidium iodide staining based FACS analysis (reference value: 5%). The class given is functional.
In series [11] the test system is HCT-116. The series is described as follows: Induction of programmed cell death in human HCT116 cells after 2 hrs by Annexin-V/propidium iodide staining based FACS analysis. It is filed as functional.
Series [12] is described as follows: Induction of programmed cell death in human MEC1 cells at 50 uM after 2 hrs by Annexin-V/propidium iodide staining based FACS analysis. The class given is functional.
Series [13] has as its system MCF7. The series is described as follows: Induction of apoptosis in human MCF7 cells assessed as early apoptotic cells at 200 uM after 2 hrs by Annexin-V/propidium iodide staining based FACS analysis (reference value: 4%). It is filed as functional.
Series [14] can be described thus: Induction of programmed cell death in human HCT116 cells at 50 uM after 2 hrs by Annexin-V/propidium iodide staining based FACS analysis. It is filed as functional, HCT-116.
In series [15] the test system is HCT-116. Nature of the series: Induction of apoptosis in human HCT116 cells assessed as early apoptotic cells at 200 uM after 2 hrs by Annexin-V/propidium iodide staining based FACS analysis (reference value: 4%). It is filed as functional.
The nature of series [16]: Aqueous solubility of compound in 50 mM sodium succinate buffer at >1 mM at pH 5 by 1D 1H NMR spectroscopic analysis. It is filed as physicochemical.

Our source for the Activity, Stability and solubility values is ChEMBL document CHEMBL3853322, “Thrombospondin-1 Mimetic Agonist Peptides Induce Selective Death in Tumor Cells: Design, Synthesis, and Structure-Activity Relationship Studies” (J Med Chem, 2016).

Take `CSCC[C@H](NC(=O)[C@@H](NC(=O)[C@@H](NC(=O)[C@H](Cc1ccc(O)cc1)NC(=O)[C@H](Cc1ccccc1)NC(=O)[C@H](CCCNC(=N)N)NC(=O)[C@H](N)CCCCN)C(C)C)C(C)C)C(=O)N[C@@H](Cc1c[nH]c2ccccc12)C(=O)N[C@@H](CCCCN)C(=O)N[C@H](CCCCN)C(=O)O`: the Activity with A549 [1] is 60%; in [2], 63%; in the series with MCF7 [3], “Dose-dependent effect”; in series [4], 25%; in the series with A549 [5], “Dose-dependent effect”; in [6], 80%. Further, the Activity in the series with MCF7 [7] was 52%; with A549 [8], 5%; in the series with HCT-116 [10], 77%; in the series with HCT-116 [11], “Dose-dependent effect”; in series [12], 25%; with MCF7 [13], 6%. In addition, the values for the Activity (in series [14]; in the series with HCT-116 [15]) were 38% and 4%, respectively. In addition, in series [9], the Stability entry is reported as “Stable”. Also, the solubility entry in series [16] is recorded as “Soluble”.
